Assay results as given in patent publication US11786484B2, “Xanthohumol solubilizate” (Aquanova AG, priority 2018, dated 2023).

What was measured:
[1] = tested on: total antioxidant capacity (TAC); experiment: Adjuvant induced arthritis in rats: total antioxidant capacity (TAC) in serum; type: in vivo, Wistar rats; conditions: serum of arthritic rats (n=8), once daily for 21 days, mean ± SEM
Experimental: (§1) Anti-inflammatory markers and antioxidant capacity were determined. Female Wistar rats with a body weight between 150 and 200 g were exposed to adjuvant induced arthritis according to Pearson et al. (1956). At day 0, the animals were administered 0.1 ml of Freund's Adjuvant (FCA) in the right hind paw, by subplantar injection. The animals were randomly divided into 12 groups of 8 animals each.
(§2) All extracts or solubilizates were administered orally once daily from day 0 through day 21 following the vaccination with the adjuvant. After day 21, the animals were killed and serum samples were prepared and stored at −80° C. Measurements were made of myeloperoxidase (MPO), C-reactive protein (CRP), total antioxidant capacity (TAC), and thiobarbituratic acid reactive substances (TBARS).
(§3) Oxidative stress is one of the major factors contributing to joint destruction in rheumatoid arthritis (RA). An increase in the production of reactive oxygen species (ROS) leads to a reduced supply of endogenous antioxidants and ultimately results in the destruction of cells. The neutrophil granulocytes released in the rheumatoid joint produce free oxygen radicals which cause increased formation of lipid peroxides manifesting in an increase in serum TBARS. […]

[2] = tested on: thiobarbituric acid reactive substances TBARS; experiment: Adjuvant induced arthritis in rats: TBARS in serum; type: in vivo, Wistar rats; conditions: serum of arthritic rats (n=8), once daily for 21 days, mean ± SEM
Experimental: as §1, §2, §3

WTD fed mice [3] = experiment: Intraperitoneal glucose tolerance test (ipGTT) in WTD mice; type: in vivo, mice of the strain C57BL/6; conditions: 2.5 mg/kg daily, after seven weeks
Experimental: (§4) The medical faculty of Friedrich-Alexander University Erlangen Nürnberg (FAU) conducted studies on the effects of xanthohumol on body weight. A dose of 2.5 mg/kg body weight of xanthohumol was administered daily. For this purpose, a solubilizate of the present Applicant was used. It was prepared from 100 g “Xantho-Flav Pure”, 150 g of 96% ethanol, and 750 g of polysorbate 80. For adjusting the concentration to 0.375 mg/ml, the solubilizate was diluted with double-distilled water (“ddH2O”). The corresponding data are marked by “s-XN” in the accompanying figures.
(§5) For comparison, similar experiments were conducted with the same dose of native xanthohumol. For dissolving the native xanthohumol, an aqueous solution of methylhydroxypropyl cellulose (MHPC, 0.2%, Methocel E4M Premium CR, Hypromellose 2910 USP, Fragron Inc., Minnesota, USA) was used. The corresponding data are marked by “n-XN”. […]
After seven weeks of administration of the solubilizate or of native xanthohumol, an intraperitoneal glucose tolerance test (ipGTT) was carried out. […] The concentration of glucose in the blood was measured in samples that were taken from the tail vein prior to glucose administration (fasting glucose) as well as 30, 60, 80, and 120 minutes thereafter. […]

WTD fed mice [4] = experiment: Liver weight, hepatic triglyceride level and histology (steatosis) in WTD mice; type: in vivo, mice of the strain C57BL/6; conditions: 2.5 mg/kg daily, 8 weeks
Experimental: as §4, §5
To quantify liver lipids, the latter were extracted and the amount of triglycerides (“hepatic triglyceride level”) was determined using a “GPO-triglyceride kit” (Sigma, Deisenhofen, Germany), as described in Wobser et al.: “Lipid accumulation in hepatocytes induces fibrogenic activation of hepatic stellate cells”, Cell Res 2009; 19:996-1005. […]

[5] = tested on: alpha-smooth muscle actin (α-SMA); experiment: Hepatic expression of alpha-smooth muscle actin in WTD mice (qPCR, immunohistochemistry); type: in vivo, mice of the strain C57BL/6; conditions: 2.5 mg/kg daily, 8 weeks
Text: (§6) Male mice of the strain C57BL/6 at an age of 8 weeks either received usual diet or were fed according to the “Western type diet” consisting of 15% pork lard, 15% beef tallow, 4% palmitic acid, 4% stearic acid, 0.2% cholesterol, and 30% sucrose. The control group (CTRL), which received the usual diet, was given an aqueous solution of methylhydroxypropyl cellulose (MHPC, 0.2%, Methocel™ E4M prem) (“vehicle” VH) as a therapy, as was the case with the “Western type diet” group (“WTD”).
(§7) Other groups received the xanthohumol solubilizate (“s-XN”) of the present Applicant or native xanthohumol (“n-XN”) in addition to the WTD. The therapy was conducted over 8 weeks.
(§8) RNA isolation from liver tissue, reverse transcription and quantitative real-time polymerase chain reaction (PCR) analysis were carried out using the “LightCycler” technology (Roche) and specific tests for primers, as described in Hellebrand et al.: “Promoter hypermethylation is causing functional relevant downregulation of methylthioadenosine phosphorylase (MTAP) expression in hepatocellular carcinoma”, Carcinogenesis 2006; 27:64-72.
The α-SMA protein is an established marker of activated hepatic stellate cells (HSC) which trigger liver cirrhosis. An immunohistochemical analysis of the α-SMA protein confirmed that WTD causes significant activation of HSC (FIG. 4B).

type 1 collagen (COL1A1) = experiment: Hepatic expression of type 1 collagen in WTD mice; type: in vivo, mice of the strain C57BL/6; conditions: 2.5 mg/kg daily, 8 weeks
Text: as §6, §7, §8
Type 1 collagen (COL1A1) is the most important extracellular matrix protein in liver fibrosis, both quantitatively and qualitatively.

C-reactive protein (CRP) = experiment: Adjuvant induced arthritis in rats: serum CRP; type: in vivo, Wistar rats; conditions: arthritic rats, 5 mg/kg orally once daily day 0 through day 21; diclofenac 3 mg/kg as reference
Experimental: as §1, §2

myeloperoxidase (MPO) = experiment: Adjuvant induced arthritis in rats: serum MPO; type: in vivo, Wistar rats; conditions: arthritic rats, 5 mg/kg orally once daily day 0 through day 21; diclofenac 3 mg/kg as reference
Experimental: as §1, §2

Compound	TAC [1] [nmol/µL]	TBARS [2] [nmol/L]	fasting glucose values (WTD fed mice [3]; 12 hours of fasting)	glucose tolerance (WTD fed mice [3]; ipGTT 3 mg glucose per gram body weight)	steatosis (liver appearance, histological examinations) (WTD fed mice [4])	WTD-induced expression of α-SMA [5]	WTD-induced expression of type 1 collagen (type 1 collagen (COL1A1))	effect on CRP serum level, in words (C-reactive protein (CRP))	effect on the serum concentration of MPO, in words (myeloperoxidase (MPO))
O=C(O)Cc1ccccc1Nc1c(Cl)cccc1Cl [Diclofenac, diclofenac]	82.08 ± 2.96	7.93 ± 0.84	–	–	–	–	–	–	–
COc1cc(O)c(CC=C(C)C)c(O)c1C(=O)/C=C/c1ccc(O)cc1 [native xanthohumol, xanthohumol]	63.71 ± 1.02	11.42 ± 1.16	did not bring about this effect	did not bring about this effect	accumulation of fat in the liver (steatosis)	hardly any effects	hardly any effects	effect comparable to that of diclofenac	only a slight effect
